Measured values: patent publication US9649332B2, “Poly (β-hydroxy short-medium chain fatty acid)” (EARTHUS, INC., priority 2003, dated 2017)

Tested on: Cell line HT-29 derived from colon tumor
Assay: Growth inhibition against colon tumor cell line (MTT method)
Type: cell-based
Conditions: 72 hours, control 0.337 ± 0.055
Protocol: Cell line HT-29 derived from colon tumor was inoculated into McCoy's SA medium supplemented with 10% fetal calf serum comprising penicillin 50 U/ml, streptomycin 50 μg/ml and HEPES 10 mM on 96-well cell culture plate (7,500 cells/well). The cells were pre-incubated in an atmosphere of 95% air and 5% carbon dioxide at 37° C. for 24 hours. […] The plate was incubated further 72 hours. The cell number in the each well was determined by the MTT method based on the difference of the optical density.

For `C[C@H](CC(=O)O)OC(=O)C[C@@H](C)O` [R-dimer, dimer of R(−)-β-hydroxybutyric acid], the “cell number by MTT method (optical density)” value (“cell number by MTT method” below) (0.1 mM) was 0.288 ± 0.019, the “cell number by MTT method” value (0.5 mM) was 0.251 ± 0.029 and the “cell number by MTT method” value (1 mM) was 0.248 ± 0.029. The “cell number by MTT method” value (2 mM) was 0.237 ± 0.019.
`C[C@@H](O)CC(=O)O` [R-β-hydroxy-butyric acid, R(−)-β-hydroxy-butyric acid] was tested, and the “cell number by MTT method” value (0.1 mM) was 0.271 ± 0.028, the “cell number by MTT method” value (0.5 mM) was 0.264 ± 0.019 and the “cell number by MTT method” value (1 mM) was 0.272 ± 0.015. The “cell number by MTT method” value (2 mM) was 0.284 ± 0.023.
With `C[C@H](O)CC(=O)O` [S-β-hydroxy-butyric acid, S(+)-β-hydroxybutyric acid] the “cell number by MTT method” value (0.1 mM) was 0.257 ± 0.035, the “cell number by MTT method” value (0.5 mM) was 0.255 ± 0.013 and the “cell number by MTT method” value (1 mM) was 0.281 ± 0.017. For the same molecule, the “cell number by MTT method” value (2 mM) was 0.293 ± 0.022.
With `CCCC(=O)O` [butyric acid, reference compound] the “cell number by MTT method” value (0.1 mM) was 0.234 ± 0.012, the “cell number by MTT method” value (0.5 mM) was 0.243 ± 0.009 and the “cell number by MTT method” value (1 mM) was 0.250 ± 0.010. The “cell number by MTT method” value (2 mM) was 0.200 ± 0.009.
